The source of these data is paper PMC11077815, “Synthesis and antitumor activity of dolutegravir derivatives bearing 1,2,3-triazole moieties” (BMC Chemistry, 2024).

SMILES strings stand for the structures.

Series [1] concerns PC-9. Description: CCK8 cell viability assay, PC-9. The class given is cell-based, Human. Particulars: for Cell viability (100%): PC9, 20 µM, 48 h, CCK8, control = 100%; for IC50: PC9, 48 h, CCK8, mean ± SE. The protocol:
(§1) At first, CCK8 assay was carried out to evaluate the anti-proliferative activity of dolutegravir-1,2,3-triazole derivatives against different cancer cell lines. The results of cell viability of three lung cancer cell lines A549, PC-9 and H460 in the presence of compounds 9 and 10 are summarized in Table 2. Cells were treated with different compounds at the concentration of 20 µM for 48 h. […] Human lung cancer cell lines A549, PC-9 and H460 were all obtained from ATCC. Cells were cultured in DMEM or RPMI 1640 medium containing 10% FBS and 1% penicillin/streptomycin at 37 °C with a 5% CO2-humidified atmosphere. CCK8 assay was used to measure cell viability. Cells with a density of 1 × 10^4 cells/well were seeded on the 96-well plates. After adhesion, cells were treated with different diluted compounds or vehicle control DMSO and continue cultured for 48 h. Then, CCK8 reagent was added for one hour incubation at 37 °C with 5% of CO2. Absorbance was measured using a microplate spectrophotometer (Thermo) at 450 nm. The ratio of cell viability of control was taken as 100%. […] Then IC50 of the compounds were investigated using the prism statistical software.
In general terms: Formazan colour is commonly taken as a measure of viable cells.

Series [2] has as its system A549. Description: CCK8 cell viability assay, A549. The class given is cell-based, Human. Particulars: for Cell viability (100%): A549, 20 µM, 48 h, CCK8, control = 100%; for IC50: A549, 48 h, CCK8, mean ± SE. The protocol: as §1
Series [3] has as its system H460. Description: CCK8 cell viability assay, H460. The class given is cell-based, Human. Particulars: for Cell viability (100%): H460, 20 µM, 48 h, CCK8, control = 100%; for IC50: H460, 48 h, CCK8, mean ± SE. The protocol:
as §1

The test system of series [4] is HRM (Human Renal Mesangial) cell line. Description: CCK8 cell viability assay, HRM normal cells (toxicity control). The class given is cell-based. Particulars: HRM normal human cells, 48 h, CCK8, mean ± SE. The protocol:
Based on these preliminary results, compounds 9c, 9e, 9f, 9i, 9k, 9 L, 9p, 9q, 9t, 9u, 9v, 9w, 10c, 10e which were effective to most of the cell lines were chosen for the measurement of the half-maximal inhibitory concentration (IC50). […] HRM (Human Renal Mesangial) cell line was used as a control to study the toxicity of these compounds against normal human cells.
CCK8 assay was used to measure cell viability. Cells with a density of 1 × 10^4 cells/well were seeded on the 96-well plates. After adhesion, cells were treated with different diluted compounds or vehicle control DMSO and continue cultured for 48 h. Then, CCK8 reagent was added for one hour incubation at 37 °C with 5% of CO2. Absorbance was measured using a microplate spectrophotometer (Thermo) at 450 nm. The ratio of cell viability of control was taken as 100%. […] Then IC50 of the compounds were investigated using the prism statistical software.

For `COc1c2n(cc(C(=O)Nc3cccc(-c4cn(-c5ccc(C(C)(C)C)cc5)nn4)c3)c1=O)C[C@@H]1OCC[C@@H](C)N1C2=O` [Compound 9n], the figures for the “Cell viability (100%)” value in series [1], in series [2] and in series [3] were 59.44%, 67.60% and 24.58%, respectively.

Consider `COc1ccc(-n2cc(-c3cccc(NC(=O)c4cn5c(c(OC)c4=O)C(=O)N4C(C)CCOC4C5)c3)nn2)cc1` (centres unmarked) [Compound 9x], for which the results for the “Cell viability (100%)” value in series [1], in series [2] and in series [3] were 78.11%, 69.21% and 108.05%, respectively.

With `COc1c2n(cc(C(=O)Nc3cccc(-c4cn(-c5ccccc5F)nn4)c3)c1=O)C[C@@H]1OCC[C@@H](C)N1C2=O` [Compound 9a], the “Cell viability (100%)” value in series [1] was determined as 52.03%; in series [2] it was 95.90%; in series [3], 47.20%.

Broadly, the IC50 is the concentration that inhibits the measured activity by half. Read a high IC50 as lower potency. Consider `COc1c2n(cc(C(=O)Nc3cccc(-c4cn(-c5ccccc5I)nn4)c3)c1=O)C[C@@H]1OCC[C@@H](C)N1C2=O` [Compound 9w], for which the “Cell viability (100%)” value is reported as 55.21% in series [1], 57.94% in series [2] and 30.63% in series [3]. In addition, the IC50 is 9.94 ± 0.36 µM in series [1], 33.7 ± 0.68 µM in series [2], more than 50 µM in series [4] and 14.7 ± 2.83 µM in series [3].

For the molecule `COc1c2n(cc(C(=O)Nc3cccc(-c4cn(-c5ccccc5Br)nn4)c3)c1=O)C[C@@H]1OCC[C@@H](C)N1C2=O` [Compound 9u], the “Cell viability (100%)” value in series [1] worked out at 43.88%; in series [2], 64.09%; in series [3] it was 31.00%. Also, the IC50 in series [1] was 7.77 ± 0.37 µM; in series [2], more than 50 µM; in series [4], more than 50 µM; in series [3], 37.3 ± 2.25 µM.

Turning to `COc1c2n(cc(C(=O)Nc3cccc(-c4cn(Cc5ccccc5)nn4)c3)c1=O)C[C@@H]1OCC[C@@H](C)N1C2=O` [Compound 10b], the “Cell viability (100%)” value was 96.85% in series [1], 87.18% in series [2] and 55.00% in series [3].

Regarding `COc1c2n(cc(C(=O)Nc3cccc(-c4cn(Cc5ccccc5Br)nn4)c3)c1=O)C[C@@H]1OCC[C@@H](C)N1C2=O` [Compound 10c], the “Cell viability (100%)” value was found to be 50.54% in series [1], 68.05% in series [2] and 41.79% in series [3]. Further, the IC50 in series [1] is 12.1 ± 0.46 µM; in series [2], more than 50 µM; in series [4] it was more than 50 µM; in series [3], 15.4 ± 1.38 µM.

Regarding `CCc1ccc(-n2cc(-c3cccc(NC(=O)c4cn5c(c(OC)c4=O)C(=O)N4[C@H](C)CCO[C@H]4C5)c3)nn2)cc1` [Compound 9 m], the “Cell viability (100%)” value was determined as 63.65% in series [1], 65.08% in series [2] and 62.63% in series [3].

As to `CCOc1ccc(-n2cc(-c3cccc(NC(=O)c4cn5c(c(OC)c4=O)C(=O)N4[C@H](C)CCO[C@H]4C5)c3)nn2)cc1` [Compound 9 h], the “Cell viability (100%)” value turned out to be 71.96% in series [1], 77.55% in series [2] and 52.87% in series [3].

Consider `COc1c2n(cc(C(=O)Nc3cccc(-c4cn(-c5ccc(F)cc5)nn4)c3)c1=O)C[C@@H]1OCC[C@@H](C)N1C2=O` [Compound 9 g], for which the figures for the “Cell viability (100%)” value in series [1], in series [2] and in series [3] were 88.64%, 91.65% and 97.85%, respectively.

For `COc1c2n(cc(C(=O)Nc3cccc(-c4cn(-c5ccc(C)cc5)nn4)c3)c1=O)C[C@@H]1OCC[C@@H](C)N1C2=O` [Compound 9y], the “Cell viability (100%)” value in series [1] is on record as 79.67%; in series [2] it was 85.43%; in series [3] it was 94.78%.

With `COc1c2n(cc(C(=O)Nc3cccc(-c4cn(-c5c(C)cc(C)cc5C)nn4)c3)c1=O)C[C@@H]1OCC[C@@H](C)N1C2=O` [Compound 9z], the “Cell viability (100%)” value in series [1] is recorded as 73.07%; in series [2], 91.32%; in series [3] it was 55.57%.

Regarding `COc1c2n(cc(C(=O)Nc3cccc(-c4cn(-c5cc(C(F)(F)F)ccc5C(F)(F)F)nn4)c3)c1=O)C[C@@H]1OCC[C@@H](C)N1C2=O` [Compound 9q], the “Cell viability (100%)” value in series [1] turned out to be 18.17%; in series [2], 54.85%; in series [3], 17.63%. The IC50 was 6.78 ± 0.31 µM in series [1], 13.6 ± 1.79 µM in series [2], more than 50 µM in series [4] and 16.5 ± 0.57 µM in series [3].

Take `COc1c2n(cc(C(=O)Nc3cccc(-c4cn(-c5ccccc5C)nn4)c3)c1=O)C[C@@H]1OCC[C@@H](C)N1C2=O` [Compound 9s]: the “Cell viability (100%)” value in series [1] is 65.73%; in series [2], 82.07%; in series [3], 48.37%.

For the molecule `COc1c2n(cc(C(=O)Nc3cccc(-c4cn(Cc5ccccc5F)nn4)c3)c1=O)CC1OCCC(C)N1C2=O` (centres unmarked) [Compound 10f], the “Cell viability (100%)” value in series [1] was 61.10%; in series [2], 82.22%; in series [3], 32.43%.

Consider `COc1cccc(Cn2cc(-c3cccc(NC(=O)c4cn5c(c(OC)c4=O)C(=O)N4[C@H](C)CCO[C@H]4C5)c3)nn2)c1` [Compound 10d], for which the “Cell viability (100%)” value is 83.17% in series [1], 89.00% in series [2] and 77.21% in series [3].

Consider `COc1ccc(-n2cc(-c3cccc(NC(=O)c4cn5c(c(OC)c4=O)C(=O)N4[C@H](C)CCO[C@H]4C5)c3)nn2)cc1OC` [Compound 9j], for which the entries for the “Cell viability (100%)” value in series [1], in series [2] and in series [3] were 85.93%, 87.42% and 92.89%, respectively.

For `COc1c2n(cc(C(=O)Nc3cccc(-c4cn(Cc5cccc(Br)c5)nn4)c3)c1=O)C[C@@H]1OCC[C@@H](C)N1C2=O` [Compound 10e], the “Cell viability (100%)” value in series [1] was determined as 49.85%; in series [2], 96.13%; in series [3], 28.88%. Also, the IC50 in series [1] is 10.1 ± 0.71 µM; in series [2], more than 50 µM; in series [4], more than 50 µM; in series [3], 9.44 ± 1.53 µM.

`COc1c2n(cc(C(=O)Nc3cccc(-c4cn(-c5ccccc5)nn4)c3)c1=O)C[C@@H]1OCC[C@@H](C)N1C2=O` [Compound 9o]: the “Cell viability (100%)” value turned out to be 94.56% in series [1], 78.59% in series [2] and 87.72% in series [3].

On to `COc1c2n(cc(C(=O)Nc3cccc(-c4cn(Cc5cc(Br)cc(Br)c5)nn4)c3)c1=O)C[C@@H]1OCC[C@@H](C)N1C2=O` [Compound 10a], for which the “Cell viability (100%)” value is 103.57% in series [1], 87.40% in series [2] and 82.32% in series [3].

In the case of `COc1c2n(cc(C(=O)Nc3cccc(-c4cn(-c5ccc(C(F)(F)F)cc5)nn4)c3)c1=O)C[C@@H]1OCC[C@@H](C)N1C2=O` [Compound 9d], the entries for the “Cell viability (100%)” value in series [1], in series [2] and in series [3] were 105.15%, 82.37% and 69.71%, respectively.

With `COc1c2n(cc(C(=O)Nc3cccc(-c4cn(Cc5ccccc5C(F)(F)F)nn4)c3)c1=O)CC1OCCC(C)N1C2=O` (centres unmarked) [Compound 10 h], the entries for the “Cell viability (100%)” value in series [1], in series [2] and in series [3] were 66.77%, 77.72% and 28.10%, respectively.

As for `COc1c2n(cc(C(=O)Nc3cccc(-c4cn(-c5cc(C(F)(F)F)cc(C(F)(F)F)c5)nn4)c3)c1=O)C[C@@H]1OCC[C@@H](C)N1C2=O` [Compound 9r], the “Cell viability (100%)” value is recorded as 98.55% in series [1], 90.73% in series [2] and 117.07% in series [3].

Consider `COc1cc([N+](=O)[O-])ccc1-n1cc(-c2cccc(NC(=O)c3cn4c(c(OC)c3=O)C(=O)N3[C@H](C)CCO[C@H]3C4)c2)nn1` [Compound 9b], for which the “Cell viability (100%)” value in series [1] turned out to be 104.86%; in series [2], 92.60%; in series [3], 98.64%.

Regarding `COc1c2n(cc(C(=O)Nc3cccc(-c4cn(Cc5ccccc5C)nn4)c3)c1=O)CC1OCCC(C)N1C2=O` (centres unmarked) [Compound 10 g], the results for the “Cell viability (100%)” value in series [1], in series [2] and in series [3] were 54.61%, 71.58% and 35.98%, respectively.
